# Reference: patent US9487489B2, “Halogen-substituted pyrazole derivatives as pest-control agents” (BAYER CROPSCIENCE AKTIENGESELLSCHAFT, priority 2013, dated 2016)
# Experiments:
# [1] = tested on: green peach aphid (Myzus persicae); test: Myzus persicae spray test (MYZUPE); assay type: in vivo; settings: Chinese cabbage leaf discs, after 6 days
# Procedure: G. Myzus persicae-spray Test (MYZUPE)
# Solvents: 78 parts by weight of acetone
# • 1.5 parts by weight of dimethylformamide Emulsifier: alkylaryl polyglycol ether
# To produce a suitable preparation of active compound, 1 part by weight of active compound is dissolved using the stated parts by weight of solvent and made up with water comprising an emulsifier concentration of 1000 ppm until the desired concentration is reached. To produce further test concentrations, the preparation is diluted with emulsifier-containing water.
# Discs of Chinese cabbage leaves (Brassica pekinensis) infested by all stages of the green peach aphid (Myzus persicae) are sprayed with an active compound preparation of the desired concentration.
# After 6 days, the efficacy in % is determined 100% here means that all of the aphids have been killed; 0% means that no aphids have been killed.
# [2] = tested on: caterpillars of the armyworm (Spodoptera frugiperda); test: Spodoptera frugiperda spray test (SPODFR); assay type: in vivo; settings: maize leaf discs, after 7 days
# Method in brief: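 Maize leaf discs sprayed with compound in acetone/DMF with alkylaryl polyglycol ether emulsifier (1000 ppm) in water, dried, then infested with armyworm caterpillars. Mortality (%) scored after 7 days; 100% = all caterpillars killed, 0% = none killed.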
# [3] = tested on: adult dog ticks (Rhipicephalus sanguineus); test: Rhipicephalus sanguineus in vitro contact test with adult brown dog ticks (T2); settings: after 48 h
# Method in brief: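 Acetone solutions coated onto test tube walls and floor, giving 5 μg/cm^2 at 900 ppm. Five to ten adult ticks held per tube in the dark at room temperature for 48 h, then heated at 45-50° C for up to 5 min; efficacy is the percentage of dead or moribund ticks unable to climb away.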
# [4] = tested on: greenhouse red spider mite (Tetranychus urticae); test: Tetranychus urticae spray test, OP-resistant (TETRUR); assay type: in vivo; settings: bean leaf discs, after 6 days
# Method in brief: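 Bean leaf discs carrying all stages of OP-resistant Tetranychus urticae were sprayed with compound formulated in acetone/dimethylformamide and diluted in water with 1000 ppm alkylaryl polyglycol ether emulsifier. Mortality (% efficacy, 100% = all mites killed) scored after 6 days.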
# [5] = tested on: larvae of the mustard beetle (Phaedon cochleariae); test: Phaedon cochleariae spray test (PHAECO); assay type: in vivo; settings: Chinese cabbage leaf discs, after 7 days
# Method in brief: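 Compound dissolved in acetone/dimethylformamide with alkylaryl polyglycol ether emulsifier, made up in water containing 1000 ppm emulsifier, then diluted to test concentrations and sprayed against mustard beetle larvae. Efficacy (% larvae killed) scored after 7 days.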
# [6] = tested on: adult cat fleas (Ctenocephalides felis); test: Ctenocephalides felis in vitro contact test with adult cat fleas (T1); settings: after 48 h
# Method in brief: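 Test compound was dissolved in acetone p.a. (9 mg per 1 ml) and diluted as needed. 250 μl was spread evenly over the inner walls and floor of a 25 ml test tube by rotating on an orbital shaker for 2 h at 30 rpm. Once the solvent evaporated, 5-10 adult Ctenocephalides felis were added. Tubes were capped with a perforated plastic lid and kept horizontal at room temperature and ambient humidity.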
# [7] = logP determination by HPLC on a reversed-phase column (C18), EEC Directive 79/831 Annex V.A8; assay type: physicochemical; settings: HPLC on reversed-phase column (C18), acetonitrile/water with formic acid, EEC Directive 79/831 Annex V.A8
# Method in brief: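 Retention on a C18 reversed-phase column (Zorbax Eclipse Plus, 1.8 micron) was used, eluting with acetonitrile/water, each containing formic acid. The gradient ran from 10% to 95% acetonitrile over 4.25 min, then held 1.25 min, at 55° C and 2.0 ml/min, with MS detection.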
Structure (SMILES),efficacy in % ([1]; application rate 500 g/ha) [%],efficacy in % ([2]; application rate 500 g/ha) [%],efficacy (dead or moribund ticks) ([3]; application rate 1 μg/cm^2) [%],efficacy (dead or moribund ticks) ([3]; application rate 5 μg/cm^2) [%],efficacy in % ([4]; application rate 500 g/ha) [%],efficacy in % ([5]; application rate 500 g/ha) [%],efficacy (dead or moribund fleas) ([6]; application rate 1 μg/cm^2) [%],efficacy (dead or moribund fleas) ([6]; application rate 5 μg/cm^2) [%],efficacy in % ([1]; application rate 100 g/ha) [%],efficacy in % ([2]; application rate 100 g/ha) [%],efficacy in % ([4]; application rate 100 g/ha) [%],efficacy in % ([5]; application rate 100 g/ha) [%],logP [7]
Cn1nc(C(F)(F)C(F)(F)F)c(C(F)(F)F)c1-n1cc(-c2ccc(Cl)c(C(=O)NC3CCCC3)c2)cn1 [Ic-141],100,100,80,100,100,100,100,100,–,–,–,–,–
Cn1nc(C(F)(F)C(F)(F)F)c(C(F)(F)F)c1-n1cc(-c2ccc(S(C)(=O)=O)c(C(=O)NC3CC3)c2)cn1 [Ic-190],–,–,–,–,–,–,–,–,100,100,100,100,3.35
Cn1nc(C(F)(F)C(F)(F)F)c(C(F)(F)F)c1-n1cc(-c2ccc(Cl)c(C(=O)NC3C[S+]([O-])C3)c2)cn1 (stereo not shown) [Ic-116],90,100,–,–,100,100,–,–,–,–,–,–,3.03
COC1(NC(=O)c2cc(-c3cnn(-c4c(C(F)(F)F)c(C(F)(F)C(F)(F)F)nn4C)c3)ccc2Cl)CC1 [Ic-187],90,100,–,–,100,100,–,–,–,–,–,–,3.83
Cn1nc(C(F)(F)F)c(C(F)F)c1-n1cc(-c2ccc(Cl)c(C(=O)NC3CC3)c2)cn1 [Ic-133],–,–,–,–,–,–,–,–,100,100,100,100,3.01
Cn1nc(C(F)(F)C(F)(F)F)c(C(F)(F)F)c1-n1cc(-c2ccc(Cl)c(C(=O)NC3CC(S(C)(=O)=O)C3)c2)cn1 (stereo not shown) [Ic-122],–,–,–,–,–,–,–,–,90,100,100,100,3.24
Cn1nc(C(F)(F)C(F)(F)F)c(C(F)(F)F)c1-n1cc(-c2ccc(Cl)c(C(=O)NC3(C4CC4)CC3)c2)cn1 [Ic-188],100,100,–,–,100,100,–,–,–,–,–,–,4.43
CCO[C@@H]1C[C@H]1NC(=O)c1cc(-c2cnn(-c3c(C(F)(F)F)c(C(F)(F)C(F)(F)F)nn3C)c2)ccc1Cl [Ic-180],90,100,–,–,100,100,–,–,–,–,–,–,3.99
Cn1nc(C(F)(F)C(F)(F)F)c(C(F)(F)F)c1-n1cc(-c2ccc(Cl)c(C(=O)NC3CC3C(F)(F)F)c2)cn1 (stereo not shown) [Ic-181],100,100,–,–,100,100,–,–,–,–,–,–,4.26
CON=Cc1ccc(-c2cnn(-c3c(C(F)(F)F)c(C(F)(F)C(F)(F)F)nn3C)c2)cc1C(=O)NC1CC1 (mixture of isomers) [Ic-118],–,–,–,–,–,–,100,100,100,100,100,100,3.99
CCOC1CC1NC(=O)c1cc(-c2cnn(-c3c(C(F)(F)F)c(C(F)(F)C(F)(F)F)nn3C)c2)ccc1Cl (stereo not shown) [Ic-186],–,100,–,–,90,100,–,–,90,–,–,–,3.73
Cn1nc(C(F)(F)C(F)(F)F)c(C(F)(F)F)c1-n1cc(-c2ccc(Cl)c(C(=S)NC3CC3)c2)cn1 [Ic-132],–,–,–,–,–,–,–,–,90,100,100,100,4.34
CCN(CC)S(=O)(=O)c1ccc(-c2cnn(-c3c(C(F)(F)F)c(C(F)(F)C(F)(F)F)nn3C)c2)cc1C(=O)NC1CC1 [Ic-185],–,–,–,–,–,–,–,–,100,100,100,100,3.99
Cn1nc(C(F)(F)C(F)(F)F)c(C(F)(F)F)c1-n1cc(-c2ccc(Cl)c(C(=O)NC3CS(=O)(=O)C3)c2)cn1 [Ic-117],90,100,–,–,100,100,–,–,–,–,–,–,3.37
Cn1nc(C(F)(F)F)c(C(F)(F)F)c1-n1cc(-c2ccc(Cl)c(C(=O)NC3(C#N)CC3)c2)cn1 [Ic-127],–,–,–,–,–,–,–,–,100,100,100,100,3.3
CC1CC1NC(=O)c1cc(-c2cnn(-c3c(C(F)(F)F)c(C(F)(F)C(F)(F)F)nn3C)c2)ccc1Cl (stereo not shown) [Ic-79],–,–,–,–,–,–,–,–,90,100,100,100,4.15
CSc1ccc(-c2cnn(-c3c(C(F)(F)F)c(C(F)(F)C(F)(F)F)nn3C)c2)cc1C(=O)NC1CC1 [Ic-182],–,–,–,–,–,–,–,–,100,100,90,100,3.81
Cn1nc(C(F)(F)F)c(CF)c1-n1cc(-c2ccc(Cl)c(C(=O)NC3(C#N)CC3)c2)cn1 [Ic-115],–,–,–,–,–,–,–,–,90,100,100,100,2.89
Cn1nc(C(F)(F)F)c(C(F)(F)F)c1-n1cc(-c2ccc(Cl)c(C(=O)NC3CC3)c2)cn1 [Ic-126],–,–,–,–,–,–,–,–,100,100,100,100,3.42
Cn1nc(C(F)(F)F)c([S+](C)[O-])c1-n1cc(-c2ccc(Cl)c(C(=O)NC3(C#N)CC3)c2)cn1 (stereo not shown) [Ic-134],–,–,–,–,–,–,–,–,100,–,100,100,2.16
Cc1ccc(-c2cnn(-c3c(C(F)(F)F)c(C(F)(F)C(F)(F)F)nn3C)c2)cc1C(=O)NC1(C#N)CC1 [Ic-129],–,–,–,–,–,–,–,–,90,100,100,100,3.73
